This is an account of results in publication doi:10.1101/366146v2 (biorxiv, 2018).

Assay in all cases: microbe, parasite or virus in culture
Holding throughout (design): species or system Enterobacteriaceae strains

The subject of test [1] is C. freundii NDM-1. The conditions noted are these: Citrobacter freundii, NDM1, read-out: MIC.
In test [2] the test system is K. pneumoniae VIM-1. To be noted: Klebsiella pneumoniae, VIM1, read-out: MIC.
The test system of test [3] is E. cloacae VIM-1. The conditions noted are these: Enterobacter cloacae, VIM1, read-out: MIC.
The test system of test [4] is E. coli ATCC 25922. The conditions noted are these: Escherichia coli, ATCC25922, read-out: MIC.
In test [5] the test system is P. stuartii NDM-1. The conditions noted are these: Providencia stuartii, NDM1, read-out: MIC.
In test [6] the test system is E. coli IMP-1. The conditions noted are these: Escherichia coli, IMP1, read-out: MIC.
Test [7] concerns E. cloacae IMP-1. To be noted: Enterobacter cloacae, IMP1, read-out: MIC.
The subject of test [8] is K. pneumoniae OXA-48. The conditions noted are these: Klebsiella pneumoniae, OXA48, read-out: MIC.
The test system of test [9] is E. cloacae IMP-8. The conditions noted are these: Enterobacter cloacae, IMP8, read-out: MIC.
Test [10] deals with K. pneumoniae IMP-1. To be noted: Klebsiella pneumoniae, IMP1, read-out: MIC.
The test system of test [11] is K. pneumoniae IMP-8. The conditions noted are these: Klebsiella pneumoniae, IMP8, read-out: MIC.
For test [12], the system named is E. coli VIM-1. To be noted: Escherichia coli, VIM1, read-out: MIC.
Test [13] deals with E. cloacae NDM-1. To be noted: Enterobacter cloacae, NDM1, read-out: MIC.
For test [14], the system named is P. rettgeri NDM-1. The conditions noted are these: Providencia rettgeri, NDM1, read-out: MIC.
In test [15] the test system is E. coli NDM-1. To be noted: Escherichia coli, NDM1, read-out: MIC.
For test [16], the system named is E. coli NDM-4. To be noted: Escherichia coli, NDM4, read-out: MIC.
In test [17] the test system is E. coli VIM-2. To be noted: Escherichia coli, VIM2, read-out: MIC.
Test [18] relates to K. pneumoniae ATCC BAA 1706. To be noted: Klebsiella pneumoniae, BAA1706, read-out: MIC.
For test [19], the system named is E. cloacae IMP-1. To be noted: Enterobacter cloacae, IMP1, read-out: MIC. The source holds these as a separate data set.
The subject of test [20] is E. coli NDM-4. To be noted: Escherichia coli, NDM4, read-out: MIC. The source holds these as a separate data set.
In test [21] the test system is K. pneumoniae VIM-1. To be noted: Klebsiella pneumoniae, VIM1, read-out: MIC. The source holds these as a separate data set.
Test [22] has as its system K. pneumoniae IMP-8. The conditions noted are these: Klebsiella pneumoniae, IMP8, read-out: MIC. This is another data set of the same source.
Test [23] deals with E. coli NDM-1. The conditions noted are these: Escherichia coli, NDM1, read-out: MIC. This is another data set of the same source.
The test system of test [24] is E. cloacae NDM-1. To be noted: Enterobacter cloacae, NDM1, read-out: MIC. This is another data set of the same source.
For test [25], the system named is E. coli IMP-1. The conditions noted are these: Escherichia coli, IMP1, read-out: MIC. The source holds these as a separate data set.
For test [26], the system named is E. cloacae IMP-8. The conditions noted are these: Enterobacter cloacae, IMP8, read-out: MIC. This is another data set of the same source.
For test [27], the system named is E. coli VIM-2. The conditions noted are these: Escherichia coli, VIM2, read-out: MIC. This is another data set of the same source.
Test [28] deals with E. cloacae VIM-1. To be noted: Enterobacter cloacae, VIM1, read-out: MIC. This is another data set of the same source.
Test [29] relates to K. pneumoniae ATCC BAA 1706. The conditions noted are these: Klebsiella pneumoniae, BAA1706, read-out: MIC. This is another data set of the same source.
Test [30] deals with K. pneumoniae IMP-1. To be noted: Klebsiella pneumoniae, IMP1, read-out: MIC. This is another data set of the same source.
For test [31], the system named is P. rettgeri NDM-1. To be noted: Providencia rettgeri, NDM1, read-out: MIC. The source holds these as a separate data set.
For test [32], the system named is C. freundii NDM-1. To be noted: Citrobacter freundii, NDM1, read-out: MIC. This is another data set of the same source.
The subject of test [33] is P. stuartii NDM-1. The conditions noted are these: Providencia stuartii, NDM1, read-out: MIC. The source holds these as a separate data set.
Test [34] concerns E. coli ATCC 25922. To be noted: Escherichia coli, ATCC25922, read-out: MIC. This is another data set of the same source.
The subject of test [35] is K. pneumoniae OXA-48. The conditions noted are these: Klebsiella pneumoniae, OXA48, read-out: MIC. This is another data set of the same source.
Test [36] concerns E. coli VIM-1. To be noted: Escherichia coli, VIM1, read-out: MIC. This is another data set of the same source.

≈ marks a conversion by molar mass, not a printed value. Where two headings read alike, the source gives them in different places.

As for `C[C@@H](O)[C@H]1C(=O)N2C(C(=O)O)=C(S[C@@H]3CN[C@H](C(=O)N(C)C)C3)[C@H](C)[C@H]12` [MEM, meropenem], the MIC stood at 8 µg/mL (≈ 20.9 µM) in the test on C. freundii NDM-1 [1]; 32 µg/mL (≈ 83.4 µM) in the test with K. pneumoniae VIM-1 [2]; 8 µg/mL (≈ 20.9 µM) with E. cloacae VIM-1 [3]; 0.03 µg/mL (≈ 0.0782 µM) in the test on E. coli ATCC 25922 [4]; 16 µg/mL (≈ 41.7 µM) in the test on P. stuartii NDM-1 [5]; 16 µg/mL (≈ 41.7 µM) in the test on E. coli IMP-1 [6]. The MIC amounted to 32 µg/mL (≈ 83.4 µM) in the test on E. cloacae IMP-1 [7]; 8 µg/mL (≈ 20.9 µM) with K. pneumoniae OXA-48 [8]; 8 µg/mL (≈ 20.9 µM) in the test on E. cloacae IMP-8 [9]; 32 µg/mL (≈ 83.4 µM) in the test on K. pneumoniae IMP-1 [10]; 16 µg/mL (≈ 41.7 µM) with K. pneumoniae IMP-8 [11]; 32 µg/mL (≈ 83.4 µM) with E. coli VIM-1 [12]. Besides, the MIC in the test with E. cloacae NDM-1 [13] came out at 16 µg/mL (≈ 41.7 µM); in the test on P. rettgeri NDM-1 [14] it was 64 µg/mL (≈ 167 µM); in the test on E. coli NDM-1 [15] it was 128 µg/mL (≈ 334 µM); in the test with E. coli NDM-4 [16], 128 µg/mL (≈ 334 µM); in the test on E. coli VIM-2 [17] it was 8 µg/mL (≈ 20.9 µM); in test [18], 0.5 µg/mL (≈ 1.3 µM).
In the case of `C1CNCCNCCN1` [compound 1, 1,4,7-triazacyclononane], the MIC in the test on E. cloacae IMP-1 [19] is 512 µg/mL (≈ 3960 µM); with E. coli NDM-4 [20], 1020 µg/mL (≈ 7930 µM); with K. pneumoniae VIM-1 [21], 512 µg/mL (≈ 3960 µM); in the test on K. pneumoniae IMP-8 [22], 1020 µg/mL (≈ 7930 µM); in the test on E. coli NDM-1 [23], 1020 µg/mL (≈ 7930 µM); with E. cloacae NDM-1 [24] it was over 1020 µg/mL. For the same compound, the MIC was 512 µg/mL (≈ 3960 µM) in the test with E. coli IMP-1 [25]; 512 µg/mL (≈ 3960 µM) in the test with E. cloacae IMP-8 [26]; 128 µg/mL (≈ 991 µM) with E. coli VIM-2 [27]; 128 µg/mL (≈ 991 µM) with E. cloacae VIM-1 [28]; 1020 µg/mL (≈ 7930 µM) in [29]; 512 µg/mL (≈ 3960 µM) with K. pneumoniae IMP-1 [30]. Also, the MIC was over 1020 µg/mL with P. rettgeri NDM-1 [31]; 1020 µg/mL (≈ 7930 µM) in the test with C. freundii NDM-1 [32]; over 1020 µg/mL with P. stuartii NDM-1 [33]; 1020 µg/mL (≈ 7930 µM) with E. coli ATCC 25922 [34]; 128 µg/mL (≈ 991 µM) in the test on K. pneumoniae OXA-48 [35]; 1020 µg/mL (≈ 7930 µM) with E. coli VIM-1 [36].
